# Test results taken from publication PMC2866470, “Teratogenic Effects of Diatom Metabolites on Sea Urchin Paracentrotus lividus Embryos” (Marine Drugs, 2010).
# pIC50: −log10 of the molar value. Like-named read-outs stand apart in the source and are kept apart here.
# Tests used:
# [1] = tested on: Paracentrotus lividus embryos; parameters: method as in ref 18 = [18]; 18 Sellem F Pesando D Bodennec G El Abed A Girard JP Toxic effects of Gymnodinium cf. mikimotoi unsaturated fatty acids to gametes and embryos of the sea urchin Paracentrotus lividus Water Res 2000 34; conditions: P. lividus; cited from earlier work
# [2] = tested on: Ciona intestinalis; parameters: method as in PMID 12874802; conditions: printed equivalent 1.32 μM; cited from earlier work
# [3] = tested on: early P. lividus embryos; parameters: method as in PMID 12939379; conditions: cited from earlier work
# [4] = tested on: Paracentrotus lividus embryos; experiment: Embryotoxicity test: inhibition of first cell cleavage in sea urchin embryos; assay type: in vivo; conditions: for Concentration at which arrest (100% blockage) of cell cleavage occurs: circa 90 min after fertilization, 20 °C
# Procedure: (§1) Paracentrotus lividus (Lamarck) sea urchins were collected during the breeding season by SCUBA diving in the Gulf of Naples and transported in an insulated box to the laboratory, within 1 h after collection, and maintained in captivity in well-aerated water at 18 °C in an open circuit. Living organisms were injected with 0.2 mL of 0.2 M acetylcholine (SIGMA-Aldrich, Milan, Italy) through the peribuccal membrane to induce gamete ejection. Spawned eggs were allowed to settle and were washed three times with 0.22 micron filtered sea water (FSW); eggs were then diluted to a final concentration of 3000 eggs mL^−1. Concentrated sperm was collected ‘dry’, mixing samples from at least three different males and stocking undiluted at +4 °C. Sperm mix was diluted 10 μL in 10 mL SW just before insemination and an aliquot of circa 100 μL of this solution was added to 100 mL of egg suspension. At 2–4 min after sperm addition the eggs were checked for successful fertilization and excess sperm were removed by washing the eggs once with FSW.
# PUAs and PUFAs were tested on sea urchin early development. […] All concentrations were tested on egg groups collected from three different females. Groups of eggs from the same animals were used as controls. To test the effect of the solvent, other groups of embryos were incubated in 10% methanol, which was the highest concentration of solvent used for incubation experiments. Embryos were kept at 20 °C in a controlled temperature chamber under 12:12 light:dark cycle.
# Cleavage inhibition was assessed by counting at least 200 embryos for each well.
# Statistical analysis and IC50 calculation were made by using the Prism software (GraphPad software inc. La Jolla, CA, USA).
# [5] = tested on: pelagic copepods; parameters: method as in ref 28 = [28]; 28 Ianora A Romano G Carotenuto Y Esposito F Roncalli V Buttino I Miralto A Impact of the diatom oxylipin 15S-HEPE on the reproductive success of the copepod Temora stylifera Hydrobiologia 2010 submit; conditions: printed equivalent 6.58 μM; cited from earlier work
# [6] = tested on: Paracentrotus lividus embryos and pluteus larvae; experiment: TUNEL fluorescence labeling of apoptosis in larvae after 48 hours of exposure; assay type: in vivo
# Procedure: P. lividus embryos were incubated as described above in decadienal at concentrations ranging from 1.32 to 6.58 μM for 48 hours. Pluteus larvae were fixed in paraformaldehyde 4% (SIGMA-Aldrich, Milan, Italy) in sea water for 2 hours at room temperature. Fixed sea urchin embryos were washed several times in phosphate saline buffer 10 mM at pH 7.4 (PBS) to remove paraformaldehyde and then incubated for 1 h in a solution of 0.1% Triton X-100 and 0.1% sodium citrate, at 4 °C. Apoptosis was assessed using TdT-mediated dUTP nick end labeling (TUNEL) (Roche Diagnostics) according to manufacturer’s instructions. After washing in PBS containing 1% bovine albumin serum (BSA, Sigma-Aldrich), treated samples were incubated at 37 °C for 90 min in TUNEL solution in a humidified chamber, in the dark. Control embryos were fixed and stained as described above. To obtain TUNEL-positive control samples, embryos were incubated for 10 min in 50 mM Tris-HCl, pH 7.5, 10 mM MgCl2, 0.1% dithiothreitol, containing 250 μg mL^−1 DNase I (grade II from bovine pancreas; Boehringer GmbH, Mannheim, Germany) at room temperature. Negative controls were obtained by incubating embryos in label solution only, as recommended by the manufacturer. […] Pictures were taken using a Zeiss Axiocam connected directly to the microscope.
# [7] = tested on: Paracentrotus lividus embryos; experiment: Embryotoxicity test: percentage of hatched sea urchin larvae after 24 hours; assay type: in vivo; conditions: for Concentration of total inhibition of hatching viability (0% of hatched larvae) / Hatching viability: 24 hours; for Hatching viability: at concentrations of circa 3.0 μM; for Effect on the transition to swimming blastula / larval stage: in vivo
# Procedure: as §1
# PUAs and PUFAs were tested on sea urchin early development. […] All concentrations were tested on egg groups collected from three different females. Groups of eggs from the same animals were used as controls. To test the effect of the solvent, other groups of embryos were incubated in 10% methanol, which was the highest concentration of solvent used for incubation experiments. Embryos were kept at 20 °C in a controlled temperature chamber under 12:12 light:dark cycle. […]
# [8] = tested on: Sphaerechinus granularis embryos; conditions: cited from earlier work
# [9] = Decadienal stability in nutrient enriched sea water (f/2 medium), spectrophotometric; assay type: physicochemical
# Procedure: Decadienal stock solution was prepared by diluting a known amount of the substance (determined by weight) in methanol. The methanolic solution was further diluted in autoclaved f/2 medium to achieve decadienal concentration ranging from 0.66 to 32.89 μM. A standard curve was generated by reporting the absorbance at 274 nm of decadienal as a function of its concentration (each determination was performed in triplicate).
# To verify decadienal stability, solutions were prepared in triplicate at a starting concentration of 8.96 μM in 250 mL f/2 and incubated in a polystyrene culture flask closed with a screw cap. The UV spectrum and absorbance reading at 274 nm were assessed with time. Decadienal concentration was determined on the basis of a standard curve.
# [10] = tested on: Paracentrotus lividus embryos and pluteus larvae; experiment: Teratogenic effect after 48 hours of incubation (abnormalities and mortality of larvae); assay type: in vivo
# Procedure: PUAs were also tested for their teratogenic effect after long term incubations. After 48 hours of incubation with test compounds, the number of abnormalities and mortality were assessed according to Pagano et al.. Embryos at various stages were observed under a light microscope (Zeiss Axiovert 135TV). Pictures were taken using a Zeiss Axiocam connected directly to the microscope.
smiles,measurement,setting,value
CCC=CCC=CCC=CCC=CCC=CCC(=O)O [octadecapentaenoic acid],Concentration of total blockage of first cleavage,[1],≥ 1 mM
"CCCCC/C=C/C=C/C=O [decadienal, 2-trans,4-trans-decadienal]",Sub-lethal concentration inducing abnormal tadpole larvae,[2],0.2 µg/mL
same,Concentration inducing apoptosis relative to the dose required to induce 100% cleavage inhibition,[3],five
same,pIC50,"[4]; 95% CI = 2.96 to 3.06 μM, circa 120 eggs mL−1",5.52
same,Concentration at which arrest (100% blockage) of cell cleavage occurs,[4]; circa 120 eggs mL−1,5.26 µM
same,Concentration to induce malformations and apoptosis,[5],1000 ng/mL
same,Number of embryos presenting a high degree of apoptosis (TUNEL),[6]; 1.32 μM,more or less the same as in the control
same,Larvae TUNEL-positive in the entire body,[6]; 2.63 μM,approximately 80%
same,Larvae TUNEL-positive,[6]; 3.95 μM,almost all of the larvae were positively stained
same,Concentration of total inhibition of hatching viability (0% of hatched larvae),[7],3.95 µM
same,Hatching viability,[7],< 50%
same,Minimum dose to inhibit 100% of embryo cleavage,[8]; S. granularis embryos,about 20 μM
same,pIC50,"[8]; S. granularis embryos, read-out: IC50 of cleavage inhibition",5.14
same,pIC50,"[8]; S. granularis, low egg density, read-out: IC50 of blockage of cell divisions in newly fertilized eggs",5.89
same,Decadienal concentration in f/2 medium,"[9]; after 24 hours (start of the gradual decrease), 8.96 μM starting concentration",7.92 (±0.3 SD) μM
same,Change of initial concentration,"[9]; after 24 hours, f/2 medium, 8.96 μM starting concentration",11.70%
same,Decadienal concentration in f/2 medium,"[9]; after seven days of incubation, natural light, 20 °C, closed vessel, 8.96 μM starting concentration",4.63 (±0.017) μM
same,Time for which the aldehyde can be detected spectrophotometrically,[9]; f/2 medium,up to 14 days
same,Time without significant change of the initial concentration,"[9]; f/2 medium, 8.96 μM starting concentration, closed flask, 20 °C",at least six
same,Abnormal plutei,"[10]; 1.32 μM, 48 hours, ± SD",11.08% ± 4.4
same,Retarded larvae,"[10]; 1.32 μM, 48 hours, ± SD",11.64% ± 8.2
same,Dead and pre-hatching embryos,"[10]; 2.63 μM, 48 hours, ±22.42 SD",up to 29.4%
same,Dead embryos,"[10]; 3.95 μM, 48 hours, ± SD",53.7% (±24.7 SD)
same,Embryos not able to survive,"[10]; 5.26 μM, 48 hours, ± SD",85.1% (±24.7 SD)
same,Concentration at which embryos were unable to develop beyond the blastula stage,[10]; in vivo,≥ 3.95 µM
same,Sub-lethal concentrations that increased abnormal plutei and delayed development,"[10]; newly fertilized eggs, 48 hours",1.32 to 5.26 µM
"CCC=CCC=CCC=CCC=CCC=CCC=CCCC(=O)O [DHA, 4,7,10,13,16,19-docosahexaenoic acid]",Percentage of embryos that underwent first cleavage,"[4]; at 304 μM, 90 min after fertilization",34%
same,Effect on the transition to swimming blastula / larval stage,[7],interfered with the transition to the larval stage
CC/C=C\C/C=C\C/C=C\C/C=C\C/C=C\CCCC(=O)OC [EPA methyl-ester],Activity on cleavage compared with EPA,[4]; in vivo,drastic reduction in the activity
same,Concentration of total inhibition of hatching viability (0% of hatched larvae),[7],158 µM
"CCCCCC=CCC=CCCCCCCCC(=O)O [linoleic, 9,12-octadecadienoic acid]",Activity on cleavage,"[4]; highest concentration tested 357 μM, 90 min after fertilization",no activity
same,Hatching (percentage of embryos),[7]; at 357 μM,60%
CCCCCCCCCCCCC=O [tridecanal],Effect on first cleavage,"[4]; up to 25 μM, higher concentrations not tested due to solubility problems in sea water",did not interfere with first cleavage
"CCC=CCC=CCC=CCC=CCCCCC(=O)O [stearidonic acid, 6,9,12,15-octadecatetraenoic acid]",Concentration at which arrest (100% blockage) of cell cleavage occurs,[4]; circa 120 eggs mL−1,181 µM
same,Effect on the transition to swimming blastula / larval stage,[7],interfered with the transition to the larval stage
"C=CC/C=C/C=C/C=O [octatrienal, 2-trans,4-trans,7-octatrienal]",Concentration at which arrest (100% blockage) of cell cleavage occurs,[4]; circa 120 eggs mL−1,11.47 µM
"CCC/C=C/C=C/C=O [octadienal, 2-trans,4-trans–octadienal]",Concentration at which arrest (100% blockage) of cell cleavage occurs,[4]; circa 120 eggs mL−1,16.13 µM
same,Concentration of total inhibition of hatching viability (0% of hatched larvae),[7],8.08 µM
same,Hatching viability,[7],> 90%
"CCC=CCC=CCC=CCC=CCC=CCCCC(=O)O [EPA, 5,8,11,14,17-eicosapentaenoic acid]",Concentration at which arrest (100% blockage) of cell cleavage occurs,[4]; circa 120 eggs mL−1,331 µM
same,Concentration of total inhibition of hatching viability (0% of hatched larvae),[7],approximately 83 μM
same,Effect on the transition to swimming blastula / larval stage,[7],interfered with the transition to the larval stage
"CCCCCC=CCC=CCC=CCCCCC(=O)O [γ-linolenic, 6,9,12-octadecatrienoic acid]",Activity on cleavage,"[4]; highest concentration tested 359 μM, 90 min after fertilization",no activity
same,Hatching (percentage of embryos),[7]; at 360 μM,50%
"O=C/C=C/C=C\CCCC(=O)O [9-oxo-nona-5Z,7E-dienoic acid, reference compound]",Activity on embryo cleavage,[8]; S. granularis embryos,not inhibitory
"CC/C=C/C=C/C=O [heptadienal, 2-trans,4-trans-heptadienal]",Concentration at which arrest (100% blockage) of cell cleavage occurs,[4]; circa 120 eggs mL−1,27.27 µM
same,Concentration of total inhibition of hatching viability (0% of hatched larvae),[7],11.36 µM
same,Hatching viability,[7],> 90%
